What all share (format): functional, cell-based
For assay [1], the system named is HeLa. The assay is described as follows: Cytotoxicity against human HeLa cells assessed as protease release from damaged cell after at 4-1000 uM after 24 hrs by luminometry.
The subject of assay [2] is HeLa. The assay is described as follows: Cytotoxicity against human HeLa cells assessed as protease release from damaged cell at 4-100 uM after 24 hrs by luminometry.
In assay [3] the test system is HeLa. The assay is described as follows: Cytotoxicity against human HeLa cells after 24 hrs by luminometry.

Molecules are shown by their SMILES. Active and inactive are the calls of the source. No cut-off for these calls is given here. Positions of bridges follow the written chain, without caps; N, C: chain ends. Non-standard residues stand in square brackets, D forms with d. Residues, ends and D or L forms follow the SMILES beside them. *: point of attachment. X1 = C[C@@H](OC(C)(C)C)[C@H](NC(=O)[C@@H](NC(=O)[C@@H]1CCC(=O)N1)[C@@H](C)O*)C(=O)O; NHTrityl = c1ccc(C(N*)(c2ccccc2)c2ccccc2)cc1; Pbf = Cc1c(C)c(S(=O)(=O)*)c(C)c2c1OC(C)(C)C2; NMeQ = CN[C@@H](CCC(N)=O)C(=O)O; pGlu = O=C1CC[C@@H](C(=O)O)N1; NMeA = CN[C@@H](C)C(=O)O; Boc = CC(C)(C)OC(=O)*; tBu = CC(C)(C)*

For the compound `Cc1c(C)c(S(=O)(=O)NC(=N)NCCC[C@H](NC(=O)[C@@H](NC(=O)[C@@H](NC(=O)[C@H](CCC(N)=O)NC(=O)OC(C)(C)C)[C@@H](C)O)[C@@H](C)OC(C)(C)C)C(=O)N[C@@H](CC(C)C)C(=O)N[C@@H](CCC(=O)NC(c2ccccc2)(c2ccccc2)c2ccccc2)C(=O)N[C@@H](Cc2ccc(OC(C)(C)C)cc2)C(=O)N[C@@H](C)C(=O)O)c(C)c2c1OC(C)(C)C2` (Boc-QTT(tBu)R(Pbf)LE(NHTrityl)Y(tBu)A-OH), in assay [1], the outcome was inactive.
Consider `Cc1c(C)c(S(=O)(=O)NC(=N)NCCC[C@@H]2NC(=O)[C@H]([C@@H](C)OC(C)(C)C)NC(=O)[C@@H](NC(=O)[C@@H](N)CCC(N)=O)[C@@H](C)OC(=O)[C@H](C)NC(=O)[C@H](Cc3ccc(OC(C)(C)C)cc3)NC(=O)[C@H](CCC(=O)NC(c3ccccc3)(c3ccccc3)c3ccccc3)NC(=O)[C@H](CC(C)C)NC2=O)c(C)c2c1OC(C)(C)C2` (H-QTT(tBu)R(Pbf)LE(NHTrityl)Y(tBu)A; ester 2-C), for which the result in assay [2] was inactive.
What is called IC50 is the concentration needed to halve the response being measured. A high value points to weaker potency. In turn, `Cc1c(C)c(S(=O)(=O)NC(=N)NCCC[C@H](N)C(=O)N[C@@H](CC(C)C)C(=O)N[C@@H](CCC(=O)NC(c2ccccc2)(c2ccccc2)c2ccccc2)C(=O)N[C@@H](Cc2ccc(OC(C)(C)C)cc2)C(=O)N[C@@H](C)C(=O)O[C@H](C)[C@H](NC(=O)[C@@H]2CCC(=O)N2)C(=O)N[C@H](C(=O)O)[C@@H](C)OC(C)(C)C)c(C)c2c1OC(C)(C)C2` (H-R(Pbf)LE(NHTrityl)Y(tBu)A-X1) had an IC50 in assay [3] of 2260 µM.
Take `CC(C)C[C@@H]1NC(=O)[C@H](CCCNC(=N)N)NC(=O)[C@H]([C@@H](C)O)NC(=O)[C@@H](NC(=O)[C@@H]2CCC(=O)N2)[C@@H](C)OC(=O)[C@H](C)NC(=O)[C@H](Cc2ccc(O)cc2)NC(=O)[C@H](CCC(N)=O)NC1=O` ([pGlu]TTRLQYA; ester 2-C): the outcome in assay [2] was inactive.
On the same count and under the same terms, the same measure for `CC(C)C[C@@H]1NC(=O)[C@H](C)N(C)C(=O)[C@H]([C@@H](C)O)NC(=O)[C@@H](NC(=O)[C@@H]2CCC(=O)N2)[C@@H](C)OC(=O)[C@H](CCC(N)=O)NC(=O)[C@H](Cc2ccc(O)cc2)NC(=O)[C@H](CCCNC(=N)N)NC1=O` ([pGlu]TT[NMeA]LRYQ; ester 2-C): “inactive”; for `CC(C)C[C@@H]1NC(=O)[C@H](C)N(C)C(=O)[C@H]([C@@H](C)O)NC(=O)[C@@H](NC(=O)[C@@H]2CCC(=O)N2)[C@@H](C)OC(=O)[C@H](CCC(N)=O)N(C)C(=O)[C@H](Cc2ccc(O)cc2)NC(=O)[C@H](CCCNC(=N)N)NC1=O` ([pGlu]TT[NMeA]LRY[NMeQ]; ester 2-C): “inactive”.
As to `C=C(C)[C@H]1Cc2c(ccc3c2O[C@@H]2COc4cc(OC)c(OC)cc4[C@@H]2C3=O)O1` [ROTENONE], the IC50 in assay [3] was 78 µM.
